From PubChem BioAssay AID256 (DTP/NCI, 2004)
Toxic doses and inconclusive results are not listed.

Test system: CD2F1 mice, L1210 leukemia ip, survival T/C
Assay: NCI In Vivo Anticancer Drug Screen. Data for tumor model L1210 Leukemia (intraperitoneal) in CD2F1 (CDF1) mice
Conditions: endpoint: mean survival time, higher = longer survival
In short: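 Ratio T/C, where T is the treated-group value and C the vehicle-dosed control value, from mice implanted with a transplantable tumor.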

[1] = dose: 100.0 mg/kg/injection, schedule: Q04DX003 (ip), vehicle: saline with Tween-80
[2] = dose: 200.0 mg/kg/injection, schedule: Q04DX003 (ip), vehicle: saline with Tween-80
[3] = dose: 400.0 mg/kg/injection, schedule: Q04DX003 (ip), vehicle: saline with Tween-80
[4] = dose: 50.0 mg/kg/injection, schedule: Q01DX009 (ip), vehicle: saline with Tween-80
[5] = dose: 100.0 mg/kg/injection, schedule: Q01DX009 (ip), vehicle: saline with Tween-80
[6] = dose: 75.0 mg/kg/injection, schedule: Q01DX001 (ip), vehicle: saline
[7] = dose: 150.0 mg/kg/injection, schedule: Q01DX001 (ip), vehicle: saline
[8] = dose: 200.0 mg/kg/injection, schedule: Q01DX009 (ip), vehicle: saline with Tween-80

C1N2CN3CN1CN(C2)C3.[Cl][Pt]([Cl])[Cl]
T/C (dose: 3.13 mg/kg/injection, schedule: Q04DX003 (ip), vehicle: distilled water + Tween-80): 103 % of control
T/C (dose: 6.25 mg/kg/injection, schedule: Q04DX003 (ip), vehicle: distilled water + Tween-80): 108 % of control
T/C (dose: 12.5 mg/kg/injection, schedule: Q04DX003 (ip), vehicle: distilled water + Tween-80): 109 % of control
T/C (dose: 25.0 mg/kg/injection, schedule: Q04DX003 (ip), vehicle: distilled water + Tween-80): 108 % of control
T/C (dose: 50.0 mg/kg/injection, schedule: Q04DX003 (ip), vehicle: distilled water + Tween-80): 115 % of control

Nc1cc(N)c([N+](=O)[O-])cc1[N+](=O)[O-]
T/C [1]: 100 % of control
T/C [2]: 91 % of control
T/C [3]: 108 % of control

C1CC[N-]CC1.C1CC[N-]CC1.C1CC[N-]CC1.C1CC[N-]CC1.[Co].[N-]=C=S.[N-]=C=S
T/C (dose: 100.0 mg/kg/injection, schedule: Q04DX002 (ip), vehicle: saline with Tween-80): 123 % of control

COc1cccc2c1C(=O)c1c(O)c3c(c(O)c1C2=O)C[C@@](O)(C(=O)COC(=O)Cc1cccc2ccccc12)C[C@@H]3OC1CC(N)C(O)C(C)O1 (stereo not given in full)
T/C (dose: 0.5 mg/kg/injection, schedule: Q01DX009 (ip), vehicle: saline with Tween-80): 118 % of control
T/C (dose: 1.0 mg/kg/injection, schedule: Q01DX001 (ip), vehicle: other): 116 % of control
T/C (dose: 2.5 mg/kg/injection, schedule: Q01DX001 (ip), vehicle: saline with Tween-80): 117 % of control
T/C (dose: 5.0 mg/kg/injection, schedule: Q04DX003 (ip), vehicle: other): 152 % of control
T/C (dose: 8.0 mg/kg/injection, schedule: Q01DX009 (ip), vehicle: saline with Tween-80): 122 % of control
T/C (dose: 10.0 mg/kg/injection, schedule: Q04DX003 (ip), vehicle: saline with Tween-80): 151 % of control
T/C (dose: 16.0 mg/kg/injection, schedule: Q01DX009 (ip), vehicle: saline with Tween-80): 88 % of control
T/C (dose: 32.0 mg/kg/injection, schedule: Q01DX001 (ip), vehicle: other): 90 % of control

CCOC(=O)CNC(=O)Oc1ccc(C=O)cc1OC
T/C (dose: 25.0 mg/kg/injection, schedule: Q01DX009 (ip), vehicle: saline with Tween-80): 100 % of control
T/C [4]: 101 % of control
T/C [5]: 90 % of control

CCOC1(OCC)C2C=CC1C1C(=O)OC(=O)C12 (stereo not given)
T/C [6]: 103 % of control
T/C [7]: 108 % of control
T/C (dose: 300.0 mg/kg/injection, schedule: Q01DX001 (ip), vehicle: saline): 102 % of control

COC(=O)C(C)(C)Br
T/C [1]: 97 % of control
T/C [2]: 102 % of control
T/C [3]: 102 % of control

O=C1CC2CC=CCC2C(=O)O1 (stereo not given)
T/C [6]: 101 % of control
T/C [7]: 98 % of control

CCC(CNCC(=O)O)(C(=O)O)C(=O)O
T/C (dose: 12.5 mg/kg/injection, schedule: Q04DX002 (ip), vehicle: saline with Tween-80): 104 % of control
T/C (dose: 25.0 mg/kg/injection, schedule: Q04DX002 (ip), vehicle: saline with Tween-80): 93 % of control
T/C (dose: 50.0 mg/kg/injection, schedule: Q04DX002 (ip), vehicle: saline with Tween-80): 111 % of control

Nc1cc(S(=O)(=O)c2ccc(N3CCCCC3)c(N)c2)ccc1N1CCCCC1
T/C [5]: 110 % of control
T/C [8]: 113 % of control

[Br][Pt+2][Br].[NH-]CC(=O)O.[NH-]CC(=O)O
T/C (dose: 25.0 mg/kg/injection, schedule: Q01DX009 (ip), vehicle: Klucel (hydroxypropylcellulose) (HPC)): 101 % of control
T/C (dose: 50.0 mg/kg/injection, schedule: Q01DX009 (ip), vehicle: Klucel (hydroxypropylcellulose) (HPC)): 90 % of control
T/C (dose: 50.0 mg/kg/injection, schedule: Q04DX003 (ip), vehicle: Klucel (hydroxypropylcellulose) (HPC)): 96 % of control
T/C (dose: 100.0 mg/kg/injection, schedule: Q01DX009 (ip), vehicle: Klucel (hydroxypropylcellulose) (HPC)): 86 % of control
T/C (dose: 100.0 mg/kg/injection, schedule: Q04DX003 (ip), vehicle: Klucel (hydroxypropylcellulose) (HPC)): 102 % of control
T/C (dose: 200.0 mg/kg/injection, schedule: Q04DX003 (ip), vehicle: Klucel (hydroxypropylcellulose) (HPC)): 95 % of control

CCCCC#CC1CCCC1 (tested in a mixture with another compound)
T/C [4]: 103 % of control
T/C [5]: 100 % of control
T/C [8]: 100 % of control

CCCCCCCCCCCCCCP(=O)(O)O
T/C (dose: 75.0 mg/kg/injection, schedule: Q01DX001 (ip), vehicle: other): 92 % of control
T/C (dose: 150.0 mg/kg/injection, schedule: Q01DX001 (ip), vehicle: other): 98 % of control
T/C (dose: 300.0 mg/kg/injection, schedule: Q01DX001 (ip), vehicle: other): 96 % of control
